Measured values as given in PMC11227574, “Synthesis, biological evaluation, molecular docking, and MD simulation of novel 2,4-disubstituted quinazoline derivatives as selective butyrylcholinesterase inhibitors and antioxidant agents” (Scientific Reports, 2024).

Legend:
[1] = target: T1, eelAChE (acetylcholinesterase from the electric eel) (Electrophorus electricus, UniProt O42275); test: biochemical; conditions: for IC50: mean ± SD of three independent experiments; for inhibition at 50 µM: read-out: eelAChE: % inhibition
T1 construct: purchased Sigma Aldrich
T1 sequence (O42275 24-633): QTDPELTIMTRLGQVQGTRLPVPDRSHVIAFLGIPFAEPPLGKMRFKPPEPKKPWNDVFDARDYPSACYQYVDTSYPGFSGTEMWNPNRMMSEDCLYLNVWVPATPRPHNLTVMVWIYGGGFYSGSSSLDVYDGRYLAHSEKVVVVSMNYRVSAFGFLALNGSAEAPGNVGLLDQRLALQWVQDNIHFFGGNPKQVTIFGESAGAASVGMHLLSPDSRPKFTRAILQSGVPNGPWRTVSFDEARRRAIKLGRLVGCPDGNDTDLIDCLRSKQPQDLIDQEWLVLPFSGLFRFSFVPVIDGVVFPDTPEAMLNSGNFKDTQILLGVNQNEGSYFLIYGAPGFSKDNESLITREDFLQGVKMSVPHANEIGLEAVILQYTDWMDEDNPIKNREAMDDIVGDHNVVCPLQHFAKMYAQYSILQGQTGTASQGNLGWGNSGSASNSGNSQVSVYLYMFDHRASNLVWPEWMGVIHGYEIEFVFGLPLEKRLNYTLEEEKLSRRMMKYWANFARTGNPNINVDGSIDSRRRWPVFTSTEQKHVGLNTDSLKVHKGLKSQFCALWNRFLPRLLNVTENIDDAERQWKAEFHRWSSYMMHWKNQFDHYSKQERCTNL

[2] = target: eqBuChE (butyrylcholinesterase from equine serum) (Equus caballus, UniProt P81908); test: biochemical; type: biochemical; conditions: for Selectivity index to BuChE (SI): IC50 for AChE/ IC50 for BuChE; for IC50: mean ± SD of three independent experiments; for inhibition at 50 µM: read-out: eqBuChE: % inhibition
eqBuChE (butyrylcholinesterase from equine serum), sequence (P81908 whole entry): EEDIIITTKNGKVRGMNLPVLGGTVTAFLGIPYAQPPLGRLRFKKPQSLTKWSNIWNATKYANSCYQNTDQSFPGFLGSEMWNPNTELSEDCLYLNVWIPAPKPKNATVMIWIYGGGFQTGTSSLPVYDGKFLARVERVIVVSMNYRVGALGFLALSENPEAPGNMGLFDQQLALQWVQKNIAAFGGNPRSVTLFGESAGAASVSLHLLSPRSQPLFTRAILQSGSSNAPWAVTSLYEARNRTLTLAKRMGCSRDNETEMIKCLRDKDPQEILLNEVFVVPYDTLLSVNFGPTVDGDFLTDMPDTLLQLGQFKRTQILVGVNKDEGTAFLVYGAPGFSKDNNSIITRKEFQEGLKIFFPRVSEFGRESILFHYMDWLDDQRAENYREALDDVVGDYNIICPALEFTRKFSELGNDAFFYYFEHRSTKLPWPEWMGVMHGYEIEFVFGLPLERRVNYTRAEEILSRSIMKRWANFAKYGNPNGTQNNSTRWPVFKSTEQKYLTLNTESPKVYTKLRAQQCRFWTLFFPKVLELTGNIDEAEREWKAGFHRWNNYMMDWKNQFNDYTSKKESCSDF

[3] = DPPH antioxidant assay; conditions: DPPH 110 µM, 30 min incubation, 517 nm; read-out: DPPH scavenging EC50
Description: The DPPH method presents several advantages, such as low cost, ease of performing experiments, high reproducibility, applicability at room temperature, and automation possibilities. In contrast to other traditional antioxidant assays that require additional treatments of sample and reagents, such as high temperatures and/or oxygen supply, the DPPH method requires mild experimental conditions[35],[36]. These features have established it as a convenient and effective option for researchers in the evaluation of antioxidant properties. In this study, the antioxidant activities of the synthesized compounds 6a-j were assessed using the DPPH assay, and the obtained results are represented as EC50 values in Table 2. In this assay, quercetin was used as positive control to compare the antioxidant capacity of the tested compounds.
The antioxidant activity of the synthesized compounds were determined based on the DPPH method. 2,2-Diphenyl-1-picrylhydrazyl (DPPH) and quercetin were obtained from Sigma Aldrich company. In this assay, quercetin was used as the control compound. Initially, stock solutions of the tested compounds with concentration of 40 mM were prepared in dimethyl sulfoxide (DMSO) solvent, and then the necessary dilutions were made in methanol to prepare the required concentrations ranging from 25 to 400 µM. This test was conducted in 96-well plates. Each well contained 180 μL of DPPH (110 μM) and 20 μL of different concentrations of the tested compounds, which were incubated for 30 min under dark condition. Then, the absorbance changes were measured at a wavelength of 517 nm using the Synergy HTX Multi-Mode Reader-BioTek. EC50 values for the compounds whose free radical trapping percentage was more than 50% at a concentration of 400 µM were obtained using CurveExpert software. Experiments were repeated three times for each concentration and the results were reported as the mean (m) ± standard deviation (SD).

[4] = target: eqBuChE (Equus caballus, UniProt P81908); test: Kinetic study of eqBuChE inhibition (Lineweaver-Burk plot); type: biochemical, equine; conditions: inhibitor 0.5, 1, 5, 10, and 20 µM
eqBuChE, sequence (P81908 whole entry): as above
Procedure: (§1) Kinetic study was performed to investigate the inhibition mechanism of eelAChE and eqBuChE using graphical analysis of the reciprocal Lineweaver–Burk plot. […] The kinetic studies were performed in the absence (control) and presence of different concentrations of compound 6h (5, 10, 20, 40, and 80 μM) for eelAChE and different concentrations of compound 6f (0.5, 1, 5, 10, and 20 μM) for eqBuChE. The control wells contained no concentration of 6h and 6f as inhibitors.
(§2) The initial velocity (V) of the substrates hydrolysis was measured at different concentrations of acetylthiocholine iodide (ATCI) or butyrylthiocholine iodide (BTCI) (1.7–20 mM), in the absence (control) and presence of different concentrations of the compound 6h (5, 10, 20, 40, and 80 μM) for AChE and different concentrations of compound 6f (0.5, 1, 5, 10, and 20 μM) for BuChE. Then, the double reciprocal plot of 1/V versus 1/S was drawn to determine the inhibition type of AChE and BuChE. Data analysis was performed using Microsoft Office Excel 2016.

[5] = target: T2, eelAChE (Electrophorus electricus, UniProt O42275); test: Kinetic study of eelAChE inhibition (Lineweaver-Burk plot); type: biochemical, electric eel; conditions: inhibitor 5, 10, 20, 40, and 80 µM
T2 construct: purchased Sigma Aldrich
T2 sequence (O42275 24-633): as the sequence (O42275 24-633) above
Procedure: as §1, §2

Row | SMILES | IC50 [1] | inhibition at 50 µM [1] | Selectivity index to BuChE (SI) [2] | IC50 [2] | inhibition at 50 µM [2] | EC50 [3] | Inhibition type of eqBuChE [4] | eqBuChE inhibitory activity, times more active than donepezil [2] | Inhibition type of eelAChE [5]
1 | Cc1ccc(O)c(Nc2nc(Nc3cc(C)ccc3O)c3ccccc3n2)c1 [Compound 6j, 2'-(quinazoline-2,4-diylbis(azanediyl))bis(4-methylphenol)] | > 50 µM | 45.2 ± 2.91% | > 13.6 | 3.65 µM | 91.6 ± 3.26% | 23.2 µM | – | – | –
2 | O=c1c(O)c(-c2ccc(O)c(O)c2)oc2cc(O)cc(O)c12 [Quercetin, quercetin, reference compound] | – | – | – | – | – | 8.9 µM | – | – | –
3 | COc1ccc(Cl)cc1Nc1nc(Nc2cc(Cl)ccc2OC)c2ccccc2n1 [Compound 6i, N^2, N^4-bis(5-chloro-2-methoxyphenyl)quinazoline-2,4-diamine] | > 50 µM | 13.7 ± 1.94% | – | > 50 µM | 26.6 ± 3.19% | > 400 µM | – | – | –
4 | Nc1ccccc1Nc1nc(Nc2ccccc2N)c2ccccc2n1 [Compound 6c, N^1, N^1′-(quinazoline-2,4-diyl)bis(benzene-1,2-diamine)] | > 50 µM | 6.15 ± 3.15% | – | 26.9 µM | 64.1 ± 2.32% | 28.4 µM | – | – | –
5 | COc1ccc(Nc2nc(Nc3ccc(OC)cc3)c3ccccc3n2)cc1 [Compound 6g, N^2, N^4-bis(4-methoxyphenyl)quinazoline-2,4-diamine] | > 50 µM | 11 ± 4.64% | – | 48.3 µM | 51.5 ± 3.25% | > 400 µM | – | – | –
6 | Cc1ccc(Nc2nc(Nc3ccc(C)cc3)c3ccccc3n2)cc1 [Compound 6f, N^2, N^4-di-p-tolylquinazoline-2,4-diamine] | > 50 µM | 40.3 ± 3.55% | > 96 | 0.52 µM | 96.7 ± 2.57% | > 400 µM | mixed-type inhibition | 20 times | –
7 | Brc1ccccc1Nc1nc(Nc2ccccc2Br)c2ccccc2n1 [Compound 6a, N^2, N^4-bis(2-bromophenyl) quinazoline-2,4-diamine] | > 50 µM | 12.4 ± 2.74% | – | > 50 µM | 30.6 ± 2.15% | > 400 µM | – | – | –
8 | FC(F)(F)c1cccc(Nc2nc(Nc3cccc(C(F)(F)F)c3)c3ccccc3n2)c1 [Compound 6e, N^2, N^4-bis(3-(trifluoromethyl)phenyl)quinazoline-2,4-diamine] | > 50 µM | 16.5 ± 3.05% | – | 43.5 µM | 58.8 ± 1.37% | > 400 µM | – | – | –
9 | Brc1cccc(Nc2nc(Nc3cccc(Br)c3)c3ccccc3n2)c1 [Compound 6d, N^2,N^4-bis(3-bromophenyl)quinazoline-2,4-diamine] | > 50 µM | 23.5 ± 1.03% | – | 41.7 µM | 56.1 ± 4.17% | > 400 µM | – | – | –
10 | COc1ccc(Nc2nc(Nc3ccc(OC)cc3OC)c3ccccc3n2)c(OC)c1 [Compound 6h, N^2, N^4-bis(2,4-dimethoxyphenyl)quinazoline-2,4-diamine] | 47.6 µM | 52.4 ± 2.33% | 7.1 | 6.74 µM | 87.5 ± 3.08% | > 400 µM | – | – | mixed-type inhibition
11 | Oc1ccccc1Nc1nc(Nc2ccccc2O)c2ccccc2n1 [Compound 6b, 2,2′-(quinazoline-2,4-diylbis(azanediyl))diphenol] | > 50 µM | 8.7 ± 1.15% | – | 37.2 µM | 52.3 ± 2.17% | 26.1 µM | – | – | –
